Reference: PubChem BioAssay (NCI)
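Tested at 5 concentrations; 48 h exposure; 96-well plates; endpoints linearly interpolated, else capped at highest concentration. GI50 is the concentration that inhibits growth by half. TGI: total growth inhibition.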

Columns and labels:
Assay in all cases: NCI anticancer screen, dose series, 48 h
SK-MEL-5 melanoma = system: SK-MEL-5 melanoma
SF-539 CNS = system: SF-539 CNS
MDA-MB-231 breast = system: MDA-MB-231 breast
HCT-15 colon = system: HCT-15 colon
HOP-62 NSCLC = system: HOP-62 NSCLC
MDA-MB-435 = system: MDA-MB-435
RXF 393 renal = system: RXF 393 renal
PC-3 prostate = system: PC-3 prostate
ACHN renal = system: ACHN renal
CAKI-1 renal = system: CAKI-1 renal

Structure (SMILES) | TGI (SK-MEL-5 melanoma) | TGI (SF-539 CNS) | TGI (MDA-MB-231 breast) | TGI (HCT-15 colon) | TGI (HOP-62 NSCLC) | TGI (MDA-MB-435) | TGI (RXF 393 renal) | TGI (PC-3 prostate) | TGI (ACHN renal) | TGI (CAKI-1 renal) | GI50 (SK-MEL-5 melanoma) | GI50 (SF-539 CNS) | GI50 (MDA-MB-231 breast) | GI50 (HCT-15 colon) | GI50 (HOP-62 NSCLC) | GI50 (MDA-MB-435) | GI50 (RXF 393 renal) | GI50 (PC-3 prostate) | GI50 (ACHN renal) | GI50 (CAKI-1 renal)
Cc1cccc(C(O)c2cccnc2)c1O (stereo not given) | > 100 µM | > 100 µM | > 100 µM | > 100 µM | > 100 µM | > 100 µM | > 100 µM | > 100 µM | > 100 µM | > 100 µM | – | – | – | – | – | – | – | – | – | –
c1cc2ccc1CNCCN1CCNCc3ccc(cc3)Oc3ccc(cc3)CNCCN(CCNCc3ccc(cc3)O2)CCNCc2ccc(cc2)Oc2ccc(cc2)CNCC1 | 5.19 µM | 2.76 µM | 1.75 µM | 20.1 µM | 2.96 µM | 2.7 µM | 3.72 µM | 1.24 µM | 15.5 µM | 12.9 µM | 2.26 µM | 1.44 µM | 0.521 µM | 4.62 µM | 1.51 µM | 1.36 µM | 1.78 µM | 0.358 µM | 3.88 µM | 3.07 µM
COC(=O)[C@@H]1O[C@]12[C@@H](CO[Si](C)(C)C(C)(C)C)O[C@@H](n1cc(C)c(=O)[nH]c1=O)[C@@H]2O[Si](C)(C)C(C)(C)C | 38.5 µM | 75.3 µM | 54.8 µM | 17.3 µM | 70.7 µM | 59.2 µM | 22.7 µM | 55.7 µM | 33 µM | 70 µM | – | – | – | – | – | – | – | – | – | –
